Data: the supplement of paper PMC10307832

Key:
Test in all cases: relative viability (nuclei count vs DMSO), 5 days (fraction); higher = more cells survive
VE-821 + Linsitinib = compound: CS(=O)(=O)c1ccc(-c2cnc(N)c(C(=O)Nc3ccccc3)n2)cc1 [VE-821] + C[C@]1(O)C[C@@H](c2nc(-c3ccc4ccc(-c5ccccc5)nc4c3)c3c(N)nccn32)C1 [Linsitinib] (partner 1 µM)
Method in brief: (§1)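 Cells from lung cancer lines were seeded into 1536-well plates and, one day later, dosed by pin tool. Treatments were either a single drug or a fixed dose of an anchor drug with five library-drug doses (not always all listed) in √10 steps. After 5 days, nuclei were stained in a one-step fixation (final 0.05% Triton X-100, 1% formaldehyde, 1 ug/ml Hoechst) and counted on 4× images, and relative viability is the treated-to-vehicle nuclei ratio, as the median of duplicate plates.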

Vismodegib + Decitabine = compound: CS(=O)(=O)c1ccc(C(=O)Nc2ccc(Cl)c(-c3ccccn3)c2)c(Cl)c1 [Vismodegib] + Nc1ncn([C@H]2C[C@H](O)[C@@H](CO)O2)c(=O)n1 [Decitabine] (partner 2 µM)
Method in brief: as §1

Vismodegib + Foretinib = compound: CS(=O)(=O)c1ccc(C(=O)Nc2ccc(Cl)c(-c3ccccn3)c2)c(Cl)c1 [Vismodegib] + COc1cc2c(Oc3ccc(NC(=O)C4(C(=O)Nc5ccc(F)cc5)CC4)cc3F)ccnc2cc1OCCCN1CCOCC1 [Foretinib] (partner 0.25 µM)
Method in brief: as §1

Ruxolitinib + Alpelisib = compound: N#CC[C@H](C1CCCC1)n1cc(-c2ncnc3[nH]ccc23)cn1 [Ruxolitinib] + Cc1nc(NC(=O)N2CCC[C@H]2C(N)=O)sc1-c1ccnc(C(C)(C)C(F)(F)F)c1 [Alpelisib] (partner 2 µM)
Method in brief: as §1

Row | Cell Line | relative viability (VE-821 + Linsitinib; first compound 0.08 µM) | relative viability (VE-821 + Linsitinib; first compound 0.253 µM) | relative viability (VE-821 + Linsitinib; first compound 0.8 µM) | relative viability (VE-821 + Linsitinib; first compound 2.53 µM) | relative viability (VE-821 + Linsitinib; first compound 8 µM) | relative viability (Vismodegib + Decitabine; first compound 0.08 µM) | relative viability (Vismodegib + Decitabine; first compound 0.253 µM) | relative viability (Vismodegib + Decitabine; first compound 0.8 µM) | relative viability (Vismodegib + Decitabine; first compound 2.53 µM) | relative viability (Vismodegib + Decitabine; first compound 8 µM) | relative viability (Vismodegib + Foretinib; first compound 0.08 µM) | relative viability (Vismodegib + Foretinib; first compound 0.253 µM) | relative viability (Vismodegib + Foretinib; first compound 0.8 µM) | relative viability (Vismodegib + Foretinib; first compound 2.53 µM) | relative viability (Vismodegib + Foretinib; first compound 8 µM) | relative viability (Ruxolitinib + Alpelisib; first compound 0.08 µM) | relative viability (Ruxolitinib + Alpelisib; first compound 0.253 µM) | relative viability (Ruxolitinib + Alpelisib; first compound 0.8 µM) | relative viability (Ruxolitinib + Alpelisib; first compound 2.53 µM) | relative viability (Ruxolitinib + Alpelisib; first compound 8 µM)
1 | EPLC-272H | 1.28 | 0.928 | 1.22 | 1.6 | 1.11 | 0.375 | 0.358 | 0.358 | 0.362 | 0.341 | 0.787 | 0.727 | 0.68 | 0.785 | 0.776 | 0.841 | 0.903 | 1.07 | 1.06 | 1.01
2 | PC-14 | 1.02 | 0.911 | 0.95 | 1.02 | 0.971 | 0.224 | 0.198 | 0.237 | 0.199 | 0.234 | 0.91 | 0.948 | 0.984 | 0.998 | 0.963 |  | 0.868 | 0.902 | 0.879 | 0.78
3 | LCLC-103H | 1.23 | 1.1 | 0.999 | 1.34 | 1.1 | 0.74 | 0.755 | 0.768 | 0.726 | 0.735 | 0.747 | 0.758 | 0.73 | 0.756 | 0.776 | 1.02 | 0.875 | 1.08 | 1.03 | 1.02
4 | COR-L 105 | 0.944 | 0.885 | 0.75 | 0.776 | 0.496 | 0.589 | 0.593 | 0.676 | 0.708 | 0.627 | 1.23 | 0.829 | 1.17 | 0.82 | 0.994 | 0.771 | 1.03 | 0.84 | 0.86 | 0.718
5 | LOU-NH91 | 0.94 | 0.949 | 0.989 | 1.04 | 0.898 | 0.796 | 0.806 | 0.84 | 0.819 | 0.81 | 0.943 | 0.925 | 0.905 | 0.867 | 0.912 | 0.569 | 0.674 | 0.796 | 0.736 | 0.694
6 | HCC-15 | 1.01 | 0.816 | 0.954 | 0.961 | 0.889 | 0.635 | 0.659 | 0.687 | 0.668 | 0.576 | 1.01 | 0.964 | 1.04 | 1.09 | 1.04 | 0.844 | 0.875 | 0.923 | 0.812 | 0.73
7 | A-427 | 1.18 | 1.12 | 1.06 | 1.08 | 0.894 | 0.515 | 0.569 | 0.546 | 0.499 | 0.582 | 1 | 1.01 | 1.08 | 1.11 | 1.11 | 1.09 | 1.03 | 1.07 | 1.06 | 1.03
8 | SW 1573 | 0.912 | 0.859 | 0.789 | 0.874 | 0.874 |  | 0.425 | 0.509 | 0.519 | 0.615 | 0.994 | 0.908 | 0.907 | 0.895 | 1.01 | 0.926 | 0.712 | 0.984 | 0.558 | 0.687
9 | NCI-H2087 | 1.18 | 0.873 | 1.23 | 1.05 | 0.864 | 0.267 | 0.25 | 0.266 | 0.296 | 0.233 | 1.09 | 1.1 | 0.985 | 1.13 | 0.938 | 0.951 | 0.832 | 1.13 | 0.769 | 0.954
10 | LK-2 | 0.583 | 0.595 | 0.662 | 0.705 | 0.501 | 0.356 | 0.253 | 0.282 | 0.283 | 0.28 | 1.14 | 0.974 | 1.13 | 1.34 | 1.38 |  | 0.992 | 1.27 | 0.971 | 1.43
11 | NCI-H2023 | 0.779 | 0.642 | 0.329 | 0.539 | 0.225 | 0.224 | 0.197 | 0.285 | 0.246 | 0.236 | 0.974 | 0.804 | 0.881 | 0.834 | 0.999 | 0.617 | 0.56 | 0.595 | 0.489 | 0.6
12 | SK-LU-1 | 1.15 | 0.86 | 1.07 | 0.843 | 0.383 | 0.619 | 0.639 | 0.588 | 0.618 | 0.607 | 0.76 | 0.821 | 0.875 | 0.753 | 0.818 | 1.18 | 1.05 | 1.11 | 0.823 | 0.623
13 | NCI-H2347 | 1.02 | 1.05 | 1.07 | 1.21 | 1.06 | 0.645 | 0.603 | 0.593 | 0.646 | 0.612 | 1.12 | 0.599 |  | 0.834 | 0.978 | 0.949 | 0.999 | 1.17 | 0.984 | 1.19
14 | NCI-H727 | 0.31 | 0.337 | 0.251 | 0.335 | 0.22 | 0.9 | 1.01 | 0.857 | 0.837 | 0.9 | 0.973 | 0.867 | 0.896 | 0.761 | 0.792 | 0.604 | 0.597 | 0.874 | 0.749 | 0.338
15 | COR-L23 | 0.958 | 0.897 | 1.16 | 0.964 | 0.719 | 0.413 | 0.429 | 0.505 | 0.441 | 0.41 | 0.957 | 0.929 | 0.891 | 0.973 | 1.06 | 0.854 | 0.827 | 0.821 | 0.731 | 0.502
16 | NCI-H2126 | 0.805 | 0.652 | 0.589 | 0.715 | 0.627 | 0.598 | 0.544 | 0.592 | 0.549 | 0.611 | 1.19 | 1.13 |  | 1.09 | 1.15 | 0.773 | 0.767 | 0.782 | 0.807 | 0.789
17 | H3255 | 1.08 | 1.05 | 0.914 | 1.06 | 0.982 | 0.569 | 0.567 | 0.578 | 0.604 | 0.562 | 0.865 | 0.866 | 0.822 | 0.888 | 0.878 |  | 0.599 | 0.749 | 0.521 | 0.608
